Results taken from PubChem BioAssay AID248 (DTP/NCI, 2004).
Toxic doses and inconclusive results are not listed. No stated cut-off is given here; in the data, active means T/C of 150% or more; inactive means T/C below 125%.

Tested on: L1210 leukemia ip in BDF1 mice, survival T/C
Assay: NCI In Vivo Anticancer Drug Screen. Data for tumor model L1210 Leukemia (intraperitoneal) in B6D2F1 (BDF1) mice
Details: endpoint: mean survival time, higher = longer survival
Method in brief: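 Ratio derived from survival: compound-dosed mice over vehicle-dosed mice, all bearing a transplantable tumor.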

[1] = dose: 100.0 mg/kg/injection, schedule: Q01DX001 (ip), vehicle: carboxymethylcellulose (CMC)
[2] = dose: 200.0 mg/kg/injection, schedule: Q01DX001 (ip), vehicle: carboxymethylcellulose (CMC)
[3] = dose: 400.0 mg/kg/injection, schedule: Q01DX001 (ip), vehicle: carboxymethylcellulose (CMC)
[4] = dose: 50.0 mg/kg/injection, schedule: Q01DX009 (ip), vehicle: saline
[5] = dose: 100.0 mg/kg/injection, schedule: Q04DX002 (ip), vehicle: saline with Tween-80
[6] = dose: 200.0 mg/kg/injection, schedule: Q04DX002 (ip), vehicle: saline with Tween-80
[7] = dose: 200.0 mg/kg/injection, schedule: Q01DX009 (ip), vehicle: saline with Tween-80
[8] = dose: 200.0 mg/kg/injection, schedule: Q04DX003 (ip), vehicle: saline with Tween-80
[9] = dose: 400.0 mg/kg/injection, schedule: Q04DX003 (ip), vehicle: saline with Tween-80
[10] = dose: 100.0 mg/kg/injection, schedule: Q01DX009 (ip), vehicle: Klucel (hydroxypropylcellulose) (HPC)
[11] = dose: 100.0 mg/kg/injection, schedule: Q04DX003 (ip), vehicle: Klucel (hydroxypropylcellulose) (HPC)
[12] = dose: 100.0 mg/kg/injection, schedule: Q01DX001 (ip), vehicle: Klucel (hydroxypropylcellulose) (HPC)
[13] = dose: 200.0 mg/kg/injection, schedule: Q01DX001 (ip), vehicle: Klucel (hydroxypropylcellulose) (HPC)
[14] = dose: 100.0 mg/kg/injection, schedule: Q01DX009 (ip), vehicle: saline with Tween-80
[15] = dose: 400.0 mg/kg/injection, schedule: Q01DX009 (ip), vehicle: saline with Tween-80

Measured: T/C

COc1c2ccoc2cc2oc(C)cc(=O)c12
inactive: dose: 37.5 mg/kg/injection, schedule: Q01DX001 (ip), vehicle: carboxymethylcellulose (CMC) 103 % of control | dose: 75.0 mg/kg/injection, schedule: Q01DX001 (ip), vehicle: carboxymethylcellulose (CMC) 100 % of control | dose: 150.0 mg/kg/injection, schedule: Q01DX001 (ip), vehicle: carboxymethylcellulose (CMC) 108 % of control

CC1(C)C(C)(C)C1(F)Cl
inactive: [1] 101 % of control | [2] 106 % of control | [3] 118 % of control

CC[N+]1=NC2CCCC(C2)C1 (stereo unspecified)
inactive: [4] 96 % of control | dose: 100.0 mg/kg/injection, schedule: Q01DX009 (ip), vehicle: saline 86 % of control | dose: 100.0 mg/kg/injection, schedule: Q04DX003 (ip), vehicle: saline 101 % of control | dose: 200.0 mg/kg/injection, schedule: Q01DX009 (ip), vehicle: saline 90 % of control | dose: 200.0 mg/kg/injection, schedule: Q04DX003 (ip), vehicle: saline 95 % of control

C#CCN(C)C(=O)Nc1ccccc1
inactive: [5] 91 % of control | [6] 91 % of control | dose: 400.0 mg/kg/injection, schedule: Q04DX002 (ip), vehicle: saline with Tween-80 113 % of control

CN(C)N=Nc1ccc([N+](=O)[O-])cc1Cl
inactive: dose: 100.0 mg/kg/injection, schedule: Q04DX003 (ip), vehicle: saline with Tween-80 101 % of control | dose: 134.0 mg/kg/injection, schedule: Q01DX009 (ip), vehicle: saline with Tween-80 113 % of control | [7] 115 % of control | [8] 105 % of control | [9] 112 % of control

COc1ccc(-c2ccccc2)cc1SCCC(=O)O
inactive: dose: 50.0 mg/kg/injection, schedule: Q01DX001 (ip), vehicle: carboxymethylcellulose (CMC) 114 % of control | [1] 101 % of control | [2] 97 % of control | [3] 95 % of control

Cc1ccc(S(=O)(=O)/C=C\S(=O)(=O)c2ccc(C)cc2)cc1
inactive: dose: 12.5 mg/kg/injection, schedule: Q01DX009 (ip), vehicle: saline 98 % of control | dose: 25.0 mg/kg/injection, schedule: Q01DX009 (ip), vehicle: saline 105 % of control | dose: 25.0 mg/kg/injection, schedule: Q04DX003 (ip), vehicle: acetone 92 % of control | [4] 86 % of control | dose: 50.0 mg/kg/injection, schedule: Q04DX003 (ip), vehicle: acetone 100 % of control | dose: 100.0 mg/kg/injection, schedule: Q01DX001 (ip), vehicle: acetone 90 % of control

O=[N+]([O-])c1cccc(C=Nc2ccc(CCO)cc2)c1
inactive: dose: 100.0 mg/kg/injection, schedule: Q04DX002 (ip), vehicle: Klucel (hydroxypropylcellulose) (HPC) 104 % of control | dose: 200.0 mg/kg/injection, schedule: Q04DX002 (ip), vehicle: Klucel (hydroxypropylcellulose) (HPC) 121 % of control | dose: 400.0 mg/kg/injection, schedule: Q04DX002 (ip), vehicle: Klucel (hydroxypropylcellulose) (HPC) 107 % of control

CC(=O)OC1C(C=C(C)C)OC2CC3(C)C4=C(CCC3(C)C2C1C)C1(C)CCC(O)C(C)(C)C1CC4 (stereo unspecified)
inactive: dose: 20.0 mg/kg/injection, schedule: Q01DX001 (sc), vehicle: steriod suspending solution 104 % of control | dose: 40.0 mg/kg/injection, schedule: Q01DX001 (sc), vehicle: steriod suspending solution 102 % of control | dose: 50.0 mg/kg/injection, schedule: Q01DX001 (sc), vehicle: steriod suspending solution 101 % of control | dose: 80.0 mg/kg/injection, schedule: Q01DX001 (sc), vehicle: steriod suspending solution 102 % of control | dose: 100.0 mg/kg/injection, schedule: Q01DX001 (sc), vehicle: steriod suspending solution 92 % of control | dose: 160.0 mg/kg/injection, schedule: Q01DX001 (sc), vehicle: steriod suspending solution 102 % of control | dose: 200.0 mg/kg/injection, schedule: Q01DX001 (sc), vehicle: steriod suspending solution 97 % of control | dose: 400.0 mg/kg/injection, schedule: Q01DX001 (sc), vehicle: steriod suspending solution 106 % of control

OCCCOc1cccc(Cl)c1
inactive: dose: 75.0 mg/kg/injection, schedule: Q04DX002 (ip), vehicle: Klucel (hydroxypropylcellulose) (HPC) 105 % of control | dose: 150.0 mg/kg/injection, schedule: Q04DX002 (ip), vehicle: Klucel (hydroxypropylcellulose) (HPC) 108 % of control | dose: 300.0 mg/kg/injection, schedule: Q04DX002 (ip), vehicle: Klucel (hydroxypropylcellulose) (HPC) 105 % of control

CC1CC(=O)c2ccccc2N1S(C)(=O)=O (stereo unspecified)
inactive: [10] 95 % of control | [11] 102 % of control | dose: 200.0 mg/kg/injection, schedule: Q01DX009 (ip), vehicle: Klucel (hydroxypropylcellulose) (HPC) 95 % of control | dose: 200.0 mg/kg/injection, schedule: Q04DX003 (ip), vehicle: Klucel (hydroxypropylcellulose) (HPC) 102 % of control | dose: 400.0 mg/kg/injection, schedule: Q01DX009 (ip), vehicle: Klucel (hydroxypropylcellulose) (HPC) 101 % of control | dose: 400.0 mg/kg/injection, schedule: Q04DX003 (ip), vehicle: Klucel (hydroxypropylcellulose) (HPC) 94 % of control

COc1ccc(C(=O)c2ccc([N+](=O)[O-])cc2)c(OC)c1
inactive: [12] 101 % of control | [13] 111 % of control

COc1ccc(/C(C)=N/N=C(\C)c2ccc(OC)cc2)cc1
inactive: [8] 94 % of control | [9] 91 % of control

Cc1c2ccccc2c(CSCC(N)C(=O)O)c2ccc3ccccc3c12 (stereo unspecified)
inactive: [14] 87 % of control | [15] 87 % of control

OCCSc1ccc(Cl)cc1
inactive: dose: 100.0 mg/kg/injection, schedule: Q01DX009 (ip), vehicle: other 97 % of control | dose: 200.0 mg/kg/injection, schedule: Q01DX009 (ip), vehicle: other 95 % of control

CCCCOC(=O)COc1cc(Cl)c(Cl)cc1Cl
inactive: [5] 93 % of control | [6] 104 % of control

CSc1ncnc2c1ncn2NCC1OC(C)OCC1O (stereo unspecified)
inactive: [12] 96 % of control | [13] 98 % of control

Cc1cc(C)c(N(CC(=O)O)S(=O)(=O)c2ccccc2)c(C)c1N(CC(=O)O)S(=O)(=O)c1ccccc1
inactive: [14] 101 % of control | [7] 98 % of control | [15] 97 % of control

CC1(C(O)(c2ccccc2)c2ccccc2)CC1
inactive: dose: 25.0 mg/kg/injection, schedule: Q04DX002 (sc), vehicle: olive oil, sesame oil, peanut oil 109 % of control | dose: 50.0 mg/kg/injection, schedule: Q04DX002 (sc), vehicle: olive oil, sesame oil, peanut oil 97 % of control | dose: 100.0 mg/kg/injection, schedule: Q04DX002 (sc), vehicle: olive oil, sesame oil, peanut oil 106 % of control

COc1cc2c(cc1OC)C1CCN3CCCC3N1CC2 (stereo unspecified)
inactive: dose: 25.0 mg/kg/injection, schedule: Q01DX009 (ip), vehicle: Klucel (hydroxypropylcellulose) (HPC) 102 % of control | dose: 50.0 mg/kg/injection, schedule: Q01DX009 (ip), vehicle: Klucel (hydroxypropylcellulose) (HPC) 96 % of control | [10] 98 % of control | [11] 96 % of control
